Assay results published in ChEMBL document CHEMBL4813944 (Eur J Med Chem, 2021).
The source made the active and inactive calls. No cut-off for these calls is given here.

What was measured:
[1] = Cytotoxicity against human SH-SY5Y cells assessed as cell viability at 10 uM measured after 24 hrs by calcein-AM staining based fluorescence analysis; details: read-out: Activity
[2] = Cytotoxicity against human SH-SY5Y cells assessed as cell viability at 0.1 uM measured after 24 hrs by calcein-AM staining based fluorescence analysis; details: read-out: Activity
[3] = Cytotoxicity against human SH-SY5Y cells assessed as cell viability at 1 uM measured after 24 hrs by calcein-AM staining based fluorescence analysis; details: read-out: Activity
SH-SY5Y [4] = assay: Neuroprotective activity against salsolinol-induced neurotoxicity in human SH-SY5Y cells assessed as cell viability at 1 uM measured after 24 hrs by calcein-AM staining based fluorescence analysis (reference value: 70.49 +/-0.51%); format: functional; details: read-out: Activity
SH-SY5Y [5] = assay: Neuroprotective activity against salsolinol-induced neurotoxicity in human SH-SY5Y cells assessed as reduction in cell death at 0.1 to 10 uM measured after 24 hrs by PI staining based analysis; format: functional; details: dose 0.1-10 µM
SH-SY5Y [6] = assay: Inhibition of glutamate-induced oxidative stress in human SH-SY5Y cells assessed as reduction in superoxide radical formation at 10 uM measured after 4 hrs by DHE staining based fluorescence microscopy; format: functional, cell-based
SH-SY5Y [7] = assay: Inhibition of glutamate-induced apoptosis in human SH-SY5Y cells assessed as caspase 3/7 activity at 10 uM incubated for 1 hr using Ac-DEVD-AMC as substrate by fluorescence analysis (reference value: 100%); format: functional; set-up: scale not given: the % may be the effect or the level left
SH-SY5Y [8] = assay: Inhibition of glutamate-induced oxidative stress in human SH-SY5Y cells assessed as superoxide radical formation at 10 uM measured after 4 hrs by DHE staining based fluorescence spectrophotometry (reference value: 100%); format: functional; set-up: scale not given: the % may be the effect or the level left
SH-SY5Y [9] = assay: Neuroprotective activity against glutamate-induced neurotoxicity in human SH-SY5Y cells assessed as cell death at 10 uM measured after 24 hrs by PI staining based assay (reference value: 100%); format: functional
[10] = Inhibition of salsolinol-induced mPTP opening in human SH-SY5Y cells assessed as fold change in fluorescence intensity at 1 uM measured after 24 hrs by calcein AM/CoCl2 based fluorescence microscopic analysis (reference value: 0.49 +/-0.02); format: functional
SH-SY5Y [11] = assay: Inhibition of salsolinol-induced apoptosis in human SH-SY5Y cells assessed as caspase 3/7 activity at 1 uM incubated for 24 hrs using Ac-DEVD-AMC as substrate by fluorescence analysis (reference value: 100%); format: functional; set-up: scale not given: the % may be the effect or the level left
SH-SY5Y [12] = assay: Inhibition of Salsolinol-induced oxidative stress in human SH-SY5Y cells assessed as reduction in superoxide radical formation at 1 uM measured after 24 hrs by DHE staining based fluorescence microscopy; format: functional, cell-based
SH-SY5Y [13] = assay: Inhibition of Salsolinol-induced oxidative stress in human SH-SY5Y cells assessed as superoxide radical formation at 10 uM measured after 24 hrs by DHE staining based fluorescence spectrophotometry (reference value: 100%); format: functional; set-up: scale not given: the % may be the effect or the level left
[14] = Inhibition of glutamate-induced mitochondrial depolarization in human SH-SY5Y cells assessed as mitochondrial membrane potential at 10 uM incubated for 1 hr by JC10 dye based fluorescence analysis (reference value: 31.2 +/-4.6%); format: functional; set-up: scale not given: the % may be the effect or the level left
SH-SY5Y [15] = assay: Neuroprotective activity against glutamate-induced neurotoxicity in human SH-SY5Y cells assessed as reduction in cell death at 0.1 to 1 uM measured after 24 hrs by PI staining based assay; format: functional; details: dose 0.1-1 µM
SH-SY5Y [16] = assay: Inhibition of Salsolinol-induced oxidative stress in human SH-SY5Y cells assessed as superoxide radical formation at 1 uM measured after 24 hrs by DHE staining based fluorescence spectrophotometry (reference value: 100%); format: functional; set-up: scale not given: the % may be the effect or the level left
[17] = Inhibition of salsolinol-induced mitochondrial depolarization in human SH-SY5Y cells assessed as mitochondrial membrane potential at 10 uM measured after 24 hrs by JC-1 staining based flow cytometry (reference value: 45.3 +/-2.09%); format: functional; set-up: scale not given: the % may be the effect or the level left
SH-SY5Y [18] = assay: Neuroprotective activity against salsolinol-induced neurotoxicity in human SH-SY5Y cells assessed as cell death at 10 uM measured after 24 hrs by PI staining based analysis (reference value: 100%); format: functional
SH-SY5Y [19] = assay: Inhibition of salsolinol-induced apoptosis in human SH-SY5Y cells assessed as appearance of necrotic cells along with early and late apoptotic cells at 10 uM measured after 24 hrs by AO/PIstaining based fluorescence microscopy; format: functional, cell-based
SH-SY5Y [20] = assay: Inhibition of salsolinol-induced mitochondrial depolarization in human SH-SY5Y cells assessed as recovery of mitochondrial membrane potential measured after 24 hrs by JC-1 staining based flow cytometry; format: functional, cell-based
[21] = Inhibition of salsolinol-induced mPTP opening in human SH-SY5Y cells assessed as fold change in fluorescence intensity at 10 uM measured after 24 hrs by calcein AM/CoCl2 based fluorescence microscopic analysis (reference value: 0.49 +/-0.02); format: functional
SH-SY5Y [22] = assay: Inhibition of salsolinol-induced apoptosis in human SH-SY5Y cells assessed as caspase 3/7 activity at 10 uM incubated for 24 hrs using Ac-DEVD-AMC as substrate by fluorescence analysis (reference value: 100%); format: functional; set-up: scale not given: the % may be the effect or the level left
SH-SY5Y [23] = assay: Neuroprotective activity against salsolinol-induced neurotoxicity in human SH-SY5Y cells assessed as cell death at 0.5 uM measured after 24 hrs by PI staining based analysis (reference value: 100%); format: functional
SH-SY5Y [24] = assay: Neuroprotective activity against salsolinol-induced neurotoxicity in human SH-SY5Y cells assessed as cell viability at 0.5 uM measured after 24 hrs by calcein-AM staining based fluorescence analysis (reference value: 70.49 +/-0.51%); format: functional; details: read-out: Activity
[25] = Inhibition of salsolinol-induced mPTP opening in human SH-SY5Y cells assessed as fold change in fluorescence intensity at 0.5 uM measured after 24 hrs by calcein AM/CoCl2 based fluorescence microscopic analysis (reference value: 0.49 +/-0.02); format: functional
SH-SY5Y [26] = assay: Inhibition of glutamate-induced apoptosis in human SH-SY5Y cells assessed as caspase 3/7 activity at 0.5 uM incubated for 1 hr using Ac-DEVD-AMC as substrate by fluorescence analysis (reference value: 100%); format: functional; set-up: scale not given: the % may be the effect or the level left
SH-SY5Y [27] = assay: Neuroprotective activity against salsolinol-induced neurotoxicity in human SH-SY5Y cells assessed as reduction in cell death at 0.1 to 1 uM measured after 24 hrs by PI staining based analysis; format: functional; details: dose 0.1-1 µM

SMILES | viability at 24 h, 10 µM [1] | viability at 24 h, 0.1 µM [2] | viability at 24 h, 1 µM [3] | viability at 1 µM (SH-SY5Y [4]) | further results
C=C(C)[C@@H]1CC[C@]2(C(=O)O)CC[C@]3(C)[C@H](C=C[C@@H]4[C@@]5(C)Cc6sc(N7CCOCC7)nc6C(C)(C)[C@@H]5CC[C@]43C)[C@@H]12 | 87% | 91.3% | 90% | – | –
C=C(Cn1cc(-c2cccnc2)nn1)[C@@H]1CC[C@]2(C(=O)O)CC[C@]3(C)[C@H](CC[C@@H]4[C@@]5(C)CC[C@H](O)C(C)(C)[C@@H]5CC[C@]43C)[C@@H]12 | 133% | 103% | 116% | 81.7% | Activity (SH-SY5Y [5]): inactive
CC(=O)N(O)CCCCCNC(=O)CCC(=O)N(O)CCCCCNC(=O)CCC(=O)N(O)CCCCCN [DEFEROXAMINE] | – | – | – | – | inhibition (SH-SY5Y [6]): inactive; Activity (SH-SY5Y [7]): 77.4%; Activity (SH-SY5Y [8]): 87.2%; Activity (SH-SY5Y [9]): 79.5%
COC(=O)[C@]12CCC(C)(C)C[C@@H]1[C@H]1C=C[C@@H]3[C@@]4(C)CC(SC#N)C(=O)C(C)(C)[C@@H]4CC[C@@]3(C)[C@]1(C)CC2 (stereo partly drawn) | 99.2% | 100% | 107% | – | –
CC(=O)OC[C@H]1O[C@@H](n2cc(CO)nn2)[C@H](OC(C)=O)[C@@H](OC(C)=O)[C@H]1OC(C)=O | 100% | 109% | 107% | – | –
C=C(C(=O)OCc1cn([C@@H]2O[C@H](COC(C)=O)[C@@H](OC(C)=O)[C@H](OC(C)=O)[C@H]2OC(C)=O)nn1)[C@@H]1CC[C@]2(COC(C)=O)CC[C@]3(C)[C@H](CC[C@@H]4[C@@]5(C)CC[C@H](OC(C)=O)C(C)(C)[C@@H]5CC[C@]43C)[C@@H]12 | 128% | 115% | 138% | 91.7% | fold change (FC) [10]: 0.75; Activity (SH-SY5Y [11]): 81.8%; inhibition (SH-SY5Y [12]): Active; Activity (SH-SY5Y [13]): 77.2%; Activity [14]: 74.7%; Activity (SH-SY5Y [15]): Active; Activity (SH-SY5Y [7]): 90.9%; Activity (SH-SY5Y [16]): 74.5%; Activity (SH-SY5Y [8]): 82.2%; Activity [17]: 89.2%; Activity (SH-SY5Y [18]): 62.6%; Activity (SH-SY5Y [9]): 75.1%; Activity (SH-SY5Y [19]): Active; inhibition (SH-SY5Y [20]): Dose-Dependent Effect; fold change (FC) [21]: 1.2; Activity (SH-SY5Y [22]): 79.5%
CC1(C)CC[C@]23CC[C@]4(C)[C@H](CC[C@@H]5[C@@]6(C)CC(C#N)=C(O)C(C)(C)[C@@H]6CC[C@]54C)[C@H]2[C@H]1OC3 | 98.8% | 93.1% | 93.8% | – | –
C/C=C/C[C@@H](C)[C@@H](O)[C@H]1C(=O)N[C@@H](CC)C(=O)N(C)CC(=O)N(C)[C@@H](CC(C)C)C(=O)N[C@@H](C(C)C)C(=O)N(C)[C@@H](CC(C)C)C(=O)N[C@@H](C)C(=O)N[C@H](C)C(=O)N(C)[C@@H](CC(C)C)C(=O)N(C)[C@@H](CC(C)C)C(=O)N(C)[C@@H](C(C)C)C(=O)N1C [CYCLOSPORINE] | – | – | – | – | Activity (SH-SY5Y [23]): 74.5%; viability at 0.5 µM (SH-SY5Y [24]): 99.3%; fold change (FC) [25]: 0.67; Activity (SH-SY5Y [26]): 89.1%
C=C(Cn1cc(-c2cccnc2)nn1)[C@@H]1CC[C@]2(C(=O)O)CC[C@]3(C)[C@H](CC[C@@H]4[C@@]5(C)CC[C@H](OC(C)=O)C(C)(C)[C@@H]5CC[C@]43C)[C@@H]12 | 57.6% | 106% | 124% | 84.3% | Activity (SH-SY5Y [27]): inactive
C=C(C(=O)OCc1cn([C@@H]2O[C@H](COC(C)=O)[C@H](OC(C)=O)[C@H](OC(C)=O)[C@H]2OC(C)=O)nn1)[C@@H]1CC[C@]2(COC(C)=O)CC[C@]3(C)[C@H](CC[C@@H]4[C@@]5(C)CC[C@H](OC(C)=O)C(C)(C)[C@@H]5CC[C@]43C)[C@@H]12 | 130% | 140% | 139% | 90.9% | Activity (SH-SY5Y [18]): 68.7%
C=C(C(=O)O)[C@@H]1CC[C@]2(COC(C)=O)CC[C@]3(C)[C@H](CC[C@@H]4[C@@]5(C)CC[C@H](OC(C)=O)C(C)(C)[C@@H]5CC[C@]43C)[C@@H]12 | 11.6% | 102% | 102% | – | –
